In US20250230193A1, “CYCLIC COMPOUND HAVING SELECTIVE KRAS INHIBITORY EFFECT ON HRAS AND NRAS” (CHUGAI SEIYAKU KABUSHIKI KAISHA, priority 2022, published 2025):
Where a SMILES comes first, the peptide text is derived from it. Bridges are numbered along the chain shown (N, C = ends). [ ]: non-standard residue; d: D form. The star is where a group is joined. hPhe(3,5-F2-4-CF3) = N[C@@H](CCc1cc(F)c(C(F)(F)F)c(F)c1)C(=O)O; hPhe(3-Cl-4-CF3) = N[C@@H](CCc1ccc(C(F)(F)F)c(Cl)c1)C(=O)O; NPrPhe(4-CF3) = CCCN[C@@H](Cc1ccc(C(F)(F)F)cc1)C(=O)O; NMeGly(cPent) = CN[C@H](C(=O)O)C1CCCC1; Ac4c(3,3-F2) = NC1(C(=O)O)CC(F)(F)C1; Hyp = O=C(O)[C@@H]1C[C@@H](O)CN1; NMeD = CN[C@@H](CC(=O)O)C(=O)O; NMeL = CN[C@@H](CC(C)C)C(=O)O; αMeL = CC(C)C[C@](C)(N)C(=O)O; Morpholide = C1CN(*)CCO1; Ac5c = NC1(C(=O)O)CCCC1; Aze = O=C(O)[C@@H]1CCN1; Ac4c = NC1(C(=O)O)CCC1; Sar = CNCC(=O)O

How the values were obtained:
[1] = biological target: GDP-bound NRAS wild-type protein (Homo sapiens, UniProt P01111); assay: Binding to NRAS by surface plasmon resonance (SPR), Single Cycle Kinetics; conditions: SPR; for NRAS/KRAS (ratio of KD value with respect to NRAS to KD value with respect to KRAS): GDP-bound NRAS wild-type vs GDP-bound KRAS wild-type
[2] = biological target: GDP-bound HRAS wild-type protein (Homo sapiens, UniProt P01112); assay: Binding to HRAS by surface plasmon resonance (SPR), Single Cycle Kinetics; conditions: SPR; for HRAS/KRAS (ratio of KD value with respect to HRAS to KD value with respect to KRAS): GDP-bound HRAS wild-type vs GDP-bound KRAS wild-type
GDP-bound HRAS wild-type protein, sequence (P01112 whole entry): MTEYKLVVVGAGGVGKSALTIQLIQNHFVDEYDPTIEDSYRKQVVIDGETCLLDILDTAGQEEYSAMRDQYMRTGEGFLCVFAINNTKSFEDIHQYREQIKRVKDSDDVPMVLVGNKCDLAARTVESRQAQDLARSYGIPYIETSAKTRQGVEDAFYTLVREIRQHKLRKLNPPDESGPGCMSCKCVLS

GDP-bound NRAS wild-type protein, sequence (P01111 whole entry): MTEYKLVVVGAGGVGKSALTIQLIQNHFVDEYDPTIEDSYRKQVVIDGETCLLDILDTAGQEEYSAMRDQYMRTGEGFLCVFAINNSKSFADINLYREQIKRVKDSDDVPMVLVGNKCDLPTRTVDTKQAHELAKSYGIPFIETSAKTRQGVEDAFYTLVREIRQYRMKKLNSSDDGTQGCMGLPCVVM

| Compound | NRAS/KRAS (ratio of KD value with respect to GDP-bound NRAS wild-type protein to KD value with respect to KRAS) ([1]; KD ratio NRAS/KRAS) | HRAS/KRAS (ratio of KD value with respect to GDP-bound HRAS wild-type protein to KD value with respect to KRAS) ([2]; KD ratio HRAS/KRAS) | NRAS/KRAS (ratio of KD value with respect to NRAS to KD value with respect to KRAS) [1] | HRAS/KRAS (ratio of KD value with respect to HRAS to KD value with respect to KRAS) [2] | also measured |
| --- | --- | --- | --- | --- | --- |
| CCCN1C(=O)CN(C)C(=O)[C@@H]2CCN2C(=O)[C@H]([C@@H](C)CC)NC(=O)[C@H](CC(C)C)N(C)C(=O)C[C@@H](C(=O)N(C)C)N(C)C(=O)[C@H](C2CCCC2)N(C)C(=O)C2(CCC2)NC(=O)[C@@H]2CCCN2C(=O)[C@H](CCc2ccc(C(F)(F)F)c(Cl)c2)NC(=O)CN(C)C(=O)[C@@H]1Cc1ccc(C(F)(F)F)cc1 [PP0430] ([NMeL]I[Aze][Sar][NPrPhe(4-CF3)][Sar][hPhe(3-Cl-4-CF3)]P[Ac4c][NMeGly(cPent)][NMeD]-NMe2; lactam N-11) | B (a compound having 3 or more and less than 10 is denoted as B) | B (a compound having 3 or more and less than 10 is denoted as B) |  |  |  |
| CCO[C@@H]1C[C@H]2C(=O)NC3(CCC3)C(=O)N(C)[C@@H](C3CCCC3)C(=O)N(C)[C@H](C(=O)N(C)C)CC(=O)N(C)[C@@H](Cc3cccnc3)C(=O)N[C@@H]([C@@H](C)CC)C(=O)N(C)CC(=O)N(C)[C@H]3CCCCCN(C3=O)[C@@H](Cc3ccc(F)cc3)C(=O)N(C)CC(=O)N[C@@H](CCc3cc(F)c(C(F)(F)F)c(F)c3)C(=O)N2C1 [PP1196] |  |  | B (a compound having 3 or more and less than 10 is denoted as B) | B (a compound having 3 or more and less than 10 is denoted as B) |  |
| CCCN1C(=O)[C@@H]2CCN2C(=O)CN(C)C(=O)[C@H]([C@@H](C)CC)NC(=O)[C@H](CC(C)C)N(C)C(=O)C[C@@H](C(=O)N2CCOCC2)N(C)C(=O)[C@H](C2CCCC2)N(C)C(=O)[C@](C)(CC(C)C)NC(=O)[C@@H]2CCCN2C(=O)[C@H](CCc2cc(F)c(C(F)(F)F)c(F)c2)NC(=O)CN(C)C(=O)[C@@H]1Cc1ccc(C(F)(F)F)cc1 [PP0795] ([NMeL]I[Sar][Aze][NPrPhe(4-CF3)][Sar][hPhe(3,5-F2-4-CF3)]P[αMeL][NMeGly(cPent)][NMeD]-Morpholide; lactam N-11) | C (A compound having a KD ratio of 0.1 or more and less than 3 is denoted as C) | B (a compound having 3 or more and less than 10 is denoted as B) |  |  |  |
| CCO[C@@H]1C[C@H]2C(=O)NC3(CCC3)C(=O)N(C)[C@@H](C3CCCC3)C(=O)N(C)[C@H](C(=O)N(C)C)CC(=O)N(C)[C@@H](C(C)C)C(=O)N[C@@H]([C@@H](C)CC)C(=O)N(C)CC(=O)N(C)[C@H]3C/C=C\CCN(C3=O)[C@@H](Cc3ccc(C(F)(F)F)cc3)C(=O)N(C)CC(=O)N[C@@H](CCc3cc(F)c(C(F)(F)F)c(F)c3)C(=O)N2C1 [PP1109] |  |  | A (a compound having 10 or more and less than 20 is denoted as A) | B (a compound having 3 or more and less than 10 is denoted as B) |  |
| CCCN1C(=O)CN(C)C(=O)CNC(=O)[C@H]([C@@H](C)CC)NC(=O)[C@H](CC(C)C)N(C)C(=O)C[C@@H](C(=O)N2CCOCC2)N(C)C(=O)[C@H](C2CCCC2)N(C)C(=O)C2(CCCC2)NC(=O)[C@@H]2C[C@@H](OCC)CN2C(=O)[C@H](CCc2ccc(C(F)(F)F)c(Cl)c2)NC(=O)CN(C)C(=O)[C@@H]1Cc1ccc(C(F)(F)F)cc1 [PP0396] ([NMeL]IG[Sar][NPrPhe(4-CF3)][Sar][hPhe(3-Cl-4-CF3)][Hyp](Et)[Ac5c][NMeGly(cPent)][NMeD]-Morpholide; lactam N-11) |  |  |  |  | NRAS/KRAS (ratio of KD for GDP-bound NRAS wild-type to KD for KRAS) ([1]; KD ratio NRAS/KRAS): B (a compound having 3 or more and less than 10 is denoted as B); HRAS/KRAS (ratio of KD for GDP-bound HRAS wild-type to KD for KRAS) ([2]; KD ratio HRAS/KRAS): C (A compound having a KD ratio of 0.1 or more and less than 3 is denoted as C) |
| CCCN1C(=O)CN(C)C(=O)CN(C)C(=O)[C@H]([C@@H](C)CC)NC(=O)[C@H](CC(C)C)N(C)C(=O)C[C@@H](C(=O)N(C)C)N(C)C(=O)[C@H](C2CCCC2)N(C)C(=O)C2(CC(F)(F)C2)NC(=O)[C@@H]2CCCN2C(=O)[C@H](CCc2cc(F)c(C(F)(F)F)c(F)c2)NC(=O)CN(C)C(=O)[C@@H]1Cc1ccc(C(F)(F)F)cc1 [PP0745] ([NMeL]I[Sar][Sar][NPrPhe(4-CF3)][Sar][hPhe(3,5-F2-4-CF3)]P[Ac4c(3,3-F2)][NMeGly(cPent)][NMeD]-NMe2; lactam N-11) | B (a compound having 3 or more and less than 10 is denoted as B) | C (A compound having a KD ratio of 0.1 or more and less than 3 is denoted as C) |  |  |  |
| CCO[C@@H]1C[C@H]2C(=O)NC3(CCC3)C(=O)N(C)[C@@H](C3CCCC3)C(=O)N(C)[C@H](C(=O)N(C)C)CC(=O)N(C)[C@@H](CC(F)(F)F)C(=O)N[C@@H]([C@@H](C)CC)C(=O)N(C)CC(=O)N(C)[C@H]3C/C=C\CCN(C3=O)[C@@H](Cc3ccc(C(F)(F)F)cc3)C(=O)N(C)CC(=O)N[C@@H](CCc3cc(F)c(C(F)(F)F)c(F)c3)C(=O)N2C1 [PP1124] |  |  | A (a compound having 10 or more and less than 20 is denoted as A) | B (a compound having 3 or more and less than 10 is denoted as B) |  |
